Source: patent publication US9216147B2, “Mild cosmetic cleansing composition” (Henkel AG & Co. KGaA, priority 2011, dated 2015)

Key:
[1] = pH of the diluted test solution; format: physicochemical; conditions: 5% in water
[2] = Irritation test (reaction time method) against commercially available baby and children's shampoos; conditions: 5% in water (reference)
Experimental: Cleansing agents 1 and 2 were compared in a test (reaction time method) with various commercially available baby and children's shampoos. The shampoos were diluted down to 50% with water in each case.
A 5% sodium laureth sulfate solution served as a reference.
A Q value of >1.20 denotes an irritating effect; a Q value of <0.8 denotes slight irritation.

- pH [1]: 7.2
Substance: sodium laureth sulfate [Reference (SLES, 5% in water)]
- Reaction time method [Q] [2]: 1.00
